# Results taken from patent publication US6613719B1, “3-(4,5-dihydroisoxazol-3-yl)-substituted benzoylpyrazoles” (BASF Aktiengesellschaft, priority 1999, dated 2003).
smiles,measurement,value
"Cc1c(C(=O)c2cnn(C)c2O)ccc(S(C)(=O)=O)c1C1=NOC(CCl)C1 (stereo not shown) [Compound 2.1, 4-[2-Methyl-3-(5-chloromethyl-4,5-dihydroisoxazol-3-yl)-4-methyl-sulfonylbenzoyl]-5-hydroxy-1-methyl-1H-pyrazole]",melting point,76 to 78 °C
